# Measured values taken from publication PMC8920379, “The discovery of berberine erythrocyte-hemoglobin self-assembly delivery system: a neglected carrier underlying its pharmacokinetics” (Drug Delivery, 2022).
# Values joined by “and” are separate entries in the source; they are usually repeats but may differ in a detail not shown here. Identical values can stand only once. Like-named read-outs stand apart in the source and are kept apart here.
# Key:
# [1] = Bioavailability study of BBR via intravenous and oral administration (free drug in plasma, HPLC); format: in vivo, SD rats; conditions: rat plasma; for AUC(0-t): n = 8, mean ± SEM
# Description: Sixteen SD rats were randomly divided into two groups (n = 8) and received a single intragastrical administration (i.g.) of BBR at the dose of 400 mg/kg and intravenous injection (i.v.) at 2.5 mg/kg dose, respectively. Blood samples (0.5 mL) were obtained from the retroorbital sinus at 0.083, 0.167, 0.25, 0.5, 1, 2, 4, 8 and 24 h after administration for i.v. group and at 0.083, 0.167, 0.25, 0.5, 1, 2, 4, 8 and 24 h for i.g. groups. The plasma samples were processed with a protein precipitation method using acetonitrile and the concentration of free drug was analyzed by HPLC (Li et al., [2016]).
# [2] = Erythrocytes/plasma partition coefficient of BBR in vivo; design: species or system SD rats; conditions: for Ce (drug concentration in erythrocytes) / Ce/p (erythrocytes/plasma partition coefficient) / Cp (drug concentration in plasma): individual rats no. 1-6
# Description: After six SD rats were intravenously administrated with BBR, blood samples were obtained from posterior orbital venous plexus to a heparinized tube at 5, 30, and 120 min, respectively, and then centrifuged at 2500 rpm for 10 min. After centrifugation, the upper layer (plasma) was collected, while the lower layer (blood cells) was washed three times with physiological saline and centrifuged for 5 min at 3000 rpm, and then resuspended in an appropriate volume of physiological saline, which was obtained as erythrocytes to perform the following procedure:
# Piperine was added into the obtained plasma as the internal standard substance and then the samples were mixed with acetonitrile to precipitate protein. The mixtures were centrifuged at 8000 rpm for 10 min. The supernatants were collected and dried. The eluates were concentrated and re-dissolved for analysis.
# The obtained erythrocytes were mixed with piperine and HC, and placed in a water bath at 60 °C for 6 h and then centrifuged at 12,000 rpm for 10 min. The supernatant was obtained and injected through a solid-phase extraction to separate drugs and impurities. The filtrate was collected, dried, and then re-dissolved with 200 μL acetonitrile for HPLC analysis (Chen et al., [2021]).
# 30% erythrocytes = assay: Berberine loading of erythrocytes (loading efficiency); format: in vitro ADME, rats; conditions: 37 °C, 2 h, n = 3
# Description: The whole blood was collected from rats by orbital plexus vein and transferred into a blood-collection tube containing ethylene diamine tetraacetic acid (EDTA) as an anticoagulant. The whole blood was centrifuged at 3000 rpm for 10 min. The plasma and the buffy coat in the supernatant were removed by aspiration, and erythrocytes were washed three times in cold phosphate buffer saline (PBS) and centrifuged for 10 min at 3000 rpm, and then resuspended in an appropriate volume of PBS.
# In order to determine the effect of BBR concentration on loading efficiency, different concentrations (1.000, 0.100, 0.010 and 0.001 M) of BBR were comparatively used at 37 °C for fixed incubation time (2 h) to obtain the more suitable concentration for the loading process. The hematocrite of washed erythrocytes was adjusted by PBS to 30%. In the 5-mL Eppendorf tubes, 1 mL of 30% erythrocytes was added to 1 mL PBS containing the known concentration of the agent. The final concentrations of BBR in the reaction system were […] (185, 18.5, 1.85 and 0.185 μg/mL), respectively. The mixtures were gently mixed to avoid hemolysis and incubated for 2 h at 37 °C. After incubation, the erythrocytes suspension was centrifuged for 10 min at 3000 rpm and the supernatant was collected.
# In order to verify the binding system, the supernatant was analyzed by quantifying the amount of unbound BBR through HPLC. In order to offset this effect, an internal standard method was employed in this study and piperine was chosen as the internal standard substance (200 μg/mL). Different known concentrations (500.00, 100.00, 20.00, 4.00, 0.80, 0.16 μg/mL) of BBR and piperine were used to create the standard curve. The peak area of each concentration with the concentration of piperine was measured 3 times. And then, the calibration curves were prepared using linear regression of known drug concentration versus peak area. The unknown concentration of BBR was analyzed by the regressed equation: y = a(x) + b. While y is the peak area ratio of BBR and piperine, a is the slope, b is the y-intercept, and x is the concentration of BBR.
# After incubation, acetonitrile was added to the different incubated solutions for protein precipitation. The mixtures were centrifuged at 8000 rpm for 10 min. The supernatants were collected and dried. The eluates were concentrated and re-dissolved for analysis. The loading efficiency was calculated according to the following formula: Loading efficiency (%) = [(Moriginal drug−Mdrug after incubation)/Moriginal drug] ×100%
# [3] = cited from earlier work
# [4] = SD, intravenous administration 2.5 mg/kg, n = 8
# [5] = SD, oral administration 400 mg/kg, n = 8
# [6] = BBR 0.185 μg/mL in BBR-erythrocyte system
# [7] = BBR 1.850 μg/mL in BBR-erythrocyte system
# [8] = BBR 18.500 μg/mL in BBR-erythrocyte system
smiles,measurement,setting,value
"COc1ccc2cc3[n+](cc2c1OC)CCc1cc2c(cc1-3)OCO2 [BBR, Berberine]",AUC(0-inf),[1]; [4],7440 ± 548 ng·h/mL
same,MRT,[1]; [4],5.6 ± 0.561 h
same,AUC(0-t),"[1]; SD, intravenous administration 2.5 mg/kg",6420 ± 685 ng·h/mL
same,Cmax,"[1]; SD, intravenous administration 2.5 mg/kg, n = 8, read-out: Cmax/C0 (C0)",2830 ± 132 ng/mL
same,AUC(0-inf),[1]; [5],685 ± 93 ng·h/mL
same,MRT,[1]; [5],4.53 ± 0.515 h
same,Tmax,[1]; [5],1 h
same,AUC(0-t),"[1]; SD, oral administration 400 mg/kg",681 ± 93 ng·h/mL
same,CL/F,"[1]; SD, oral administration 400 mg/kg, n = 8, read-out: Clz/F (converted)",254 L/h/kg
same,Cmax,"[1]; SD, oral administration 400 mg/kg, n = 8, read-out: Cmax/C0 (Cmax)",260 ± 32 ng/mL
same,t1/2z,"[1]; intravenous administration 2.5 mg/kg, n = 8, 2.5 mg/kg",3.885 ± 0.389 h
same,t1/2z,"[1]; oral administration 400 mg/kg, n = 8, 400 mg/kg",3.136 ± 0.357 h
same,Ce (drug concentration in erythrocytes),[2]; 5 min after 2.5 mg/kg,1.313 µM and 0.039 µM and 0.000 µM and 0.375 µM and 0.862 µM and 0.584 µM
same,Ce/p (erythrocytes/plasma partition coefficient),[2]; 5 min after 2.5 mg/kg,∞ and 0.081 and 1.610 and 3.700 and 1.405
same,Cp (drug concentration in plasma),[2]; 5 min after 2.5 mg/kg,0 nM and 489 nM and 233 nM and 416 nM
same,Ce (drug concentration in erythrocytes),[2]; 30 min after 2.5 mg/kg,0.044 µM and 0.212 µM and 0.026 µM and 0.176 µM and 0.539 µM
same,Ce/p (erythrocytes/plasma partition coefficient),[2]; 30 min after 2.5 mg/kg,∞ and 0.090 and 0.897 and 0.875
same,Cp (drug concentration in plasma),[2]; 30 min after 2.5 mg/kg,0 nM and 282 nM and 197 nM and 616 nM
same,Ce (drug concentration in erythrocytes),[2]; 120 min after 2.5 mg/kg,0.225 µM and 0.000 µM and 0.132 µM
same,Ce/p (erythrocytes/plasma partition coefficient),[2]; 120 min after 2.5 mg/kg,∞
same,Cp (drug concentration in plasma),[2]; 120 min after 2.5 mg/kg,0 nM and 1243 nM
same,Kp at 5 min,"[2]; SD, rat, erythrocytes/plasma, iv, 2.5 mg/kg, 5 min after intravenous administration, rats, read-out: Ce/p value (group value)",1.67 ± 1.5
same,Kp at 30 min,"[2]; SD, rat, erythrocytes/plasma, iv, 2.5 mg/kg, 30 min after intravenous administration, rats, read-out: Ce/p value (group value)",0.62 ± 0.6
same,Extracellular BBR concentration after incubation,30% erythrocytes; [6],0 ± 0.051 µg/mL
same,Loading percentage,30% erythrocytes; [6],100% and 100 ± 19.84%
same,Extracellular BBR concentration after incubation,30% erythrocytes; [7],0.115 ± 0.072 µg/mL
same,Loading percentage,30% erythrocytes; [7],95.528 ± 2.622%
same,Extracellular BBR concentration after incubation,30% erythrocytes; [8],2.288 ± 0.105 µg/mL
same,Loading percentage,30% erythrocytes; [8],88.772 ± 0.410%
same,concentration of BBR in the liver relative to plasma,"[3]; background statement of the introduction, no reference given",about 10 fold
same,average concentration of BBR in liver relative to plasma,"[3]; ref Yan et al., 2009, Tan et al., 2013, Yu et al., 2017",10–30 times
